From ChEMBL document CHEMBL1201862, “PubChem BioAssay data set” (2004) come the findings set out here.

The structures appear in SMILES notation. The source made the active and inactive calls. A value given as a limit tells only on which side of the number the result lay.

For series [1], the target named is Luciferin 4-monooxygenase (Photinus pyralis, UniProt P08659). Kind of series: firefly luciferase enzyme inhibitors, dose response, biochemical, luminescence (AID 1891).
A short description of series [2]: Luminescence Cell-Based Dose Confirmation HTS to Identify Inhibitors of Platelet Dense Granule Release. [Related pubchem assays: 1663 (Primary HTS), 1678 (Summary of Project)]. It counts as functional.
The target of a further series is Beta-galactosidase (Escherichia coli, UniProt Q8VNN2). Kind of series: Dose response counterscreen for EBI2 assay utilizing the enzyme, b-galactosidase. It counts as functional.
Sequence of Beta-galactosidase (Q8VNN2 whole entry): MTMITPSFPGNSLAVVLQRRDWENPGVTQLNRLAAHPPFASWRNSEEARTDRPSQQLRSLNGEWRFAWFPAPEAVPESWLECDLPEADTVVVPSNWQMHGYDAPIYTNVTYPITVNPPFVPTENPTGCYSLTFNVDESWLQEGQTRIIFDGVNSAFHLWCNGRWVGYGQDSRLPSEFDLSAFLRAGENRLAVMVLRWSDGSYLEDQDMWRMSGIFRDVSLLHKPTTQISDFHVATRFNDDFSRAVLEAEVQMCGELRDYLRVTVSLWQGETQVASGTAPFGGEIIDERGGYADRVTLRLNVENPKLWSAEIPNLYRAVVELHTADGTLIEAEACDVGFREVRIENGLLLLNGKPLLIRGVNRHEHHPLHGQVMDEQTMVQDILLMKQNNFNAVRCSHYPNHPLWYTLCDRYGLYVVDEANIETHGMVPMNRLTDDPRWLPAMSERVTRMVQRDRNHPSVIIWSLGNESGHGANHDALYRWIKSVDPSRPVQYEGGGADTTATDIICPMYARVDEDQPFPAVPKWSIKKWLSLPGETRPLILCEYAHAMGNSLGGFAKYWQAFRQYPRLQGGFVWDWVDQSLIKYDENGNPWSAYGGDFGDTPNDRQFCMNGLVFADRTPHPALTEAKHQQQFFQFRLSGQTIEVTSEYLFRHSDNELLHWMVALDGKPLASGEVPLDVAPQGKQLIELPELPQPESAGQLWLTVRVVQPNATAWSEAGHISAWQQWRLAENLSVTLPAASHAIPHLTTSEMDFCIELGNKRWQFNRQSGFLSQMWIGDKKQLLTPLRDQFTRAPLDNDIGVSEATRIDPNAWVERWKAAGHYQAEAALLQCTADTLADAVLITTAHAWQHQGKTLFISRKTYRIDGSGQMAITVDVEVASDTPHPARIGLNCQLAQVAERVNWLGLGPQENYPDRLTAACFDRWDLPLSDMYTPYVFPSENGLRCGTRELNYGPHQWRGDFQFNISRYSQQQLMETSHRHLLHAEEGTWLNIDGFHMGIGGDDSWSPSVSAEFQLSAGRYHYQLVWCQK
In another series the target is Cytochrome P450 3A4 (Homo sapiens, UniProt P08684).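 Further: CYP3A4 tested as one member of a cytochrome P450 panel screen.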
Sequence of Cytochrome P450 3A4 (P08684 whole entry): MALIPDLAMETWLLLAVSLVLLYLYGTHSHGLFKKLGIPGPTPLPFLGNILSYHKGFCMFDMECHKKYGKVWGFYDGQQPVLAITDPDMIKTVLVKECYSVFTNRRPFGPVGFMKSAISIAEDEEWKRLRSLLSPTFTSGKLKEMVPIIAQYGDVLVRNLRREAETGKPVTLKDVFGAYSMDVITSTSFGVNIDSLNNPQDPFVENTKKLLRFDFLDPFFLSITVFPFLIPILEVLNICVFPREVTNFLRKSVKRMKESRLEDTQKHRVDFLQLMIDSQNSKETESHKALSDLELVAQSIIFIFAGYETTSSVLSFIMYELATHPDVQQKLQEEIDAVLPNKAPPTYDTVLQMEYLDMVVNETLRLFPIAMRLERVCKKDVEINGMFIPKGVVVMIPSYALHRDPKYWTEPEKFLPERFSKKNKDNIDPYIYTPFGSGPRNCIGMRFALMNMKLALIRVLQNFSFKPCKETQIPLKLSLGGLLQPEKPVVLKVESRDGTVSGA
The target in another series is T1, Cytochrome P450 1A2 (Homo sapiens, UniProt P05177).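 Further: PubChem cytochrome P450 panel assay, CYP1A2 panel member.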
T1 sequence (P05177 whole entry): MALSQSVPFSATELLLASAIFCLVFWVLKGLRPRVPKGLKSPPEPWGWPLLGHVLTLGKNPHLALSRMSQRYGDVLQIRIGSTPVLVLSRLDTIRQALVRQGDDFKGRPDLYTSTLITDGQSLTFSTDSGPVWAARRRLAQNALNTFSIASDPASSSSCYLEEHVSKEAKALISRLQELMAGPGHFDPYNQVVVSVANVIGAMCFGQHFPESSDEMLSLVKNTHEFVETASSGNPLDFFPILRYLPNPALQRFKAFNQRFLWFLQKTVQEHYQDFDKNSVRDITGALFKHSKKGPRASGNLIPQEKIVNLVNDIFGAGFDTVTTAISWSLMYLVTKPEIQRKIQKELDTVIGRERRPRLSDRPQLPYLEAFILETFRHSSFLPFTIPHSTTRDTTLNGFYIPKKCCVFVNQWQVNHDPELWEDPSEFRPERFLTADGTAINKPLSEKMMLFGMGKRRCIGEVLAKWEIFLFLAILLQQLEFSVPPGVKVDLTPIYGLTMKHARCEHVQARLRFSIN

A further series deals with Prothrombin (Homo sapiens, UniProt P00734). Kind of series: Thrombin 1536 HTS Dose Response Confirmation. [Related pubchem assays: 1046 (Thrombin 1536 HTS; hits were confirmed in this assay)]. Format: functional.
The nature of series [3]: Vero cell cytotoxicity, dose response, cytotoxicity control for Vif-APOBEC3G degradation inhibitor project, Vero cells (AID 1117358). It counts as functional. The conditions noted are these: Human immunodeficiency virus 1, Vero.
In series [4] the test system is BJ. Kind of series: cytotoxicity toward BJ-TERT fibroblasts, dose response, cell-based, RAS-independent, luminescence (AID 1933). It counts as functional. The conditions noted are these: Homo sapiens.
Series [5] relates to BJ. Kind of series: cells. As to conditions: Homo sapiens. Format: functional, cell-based.
For series [6], the system named is BJ. In words: cytotoxicity toward BJ-TERT-LT-ST fibroblasts, dose response, cell-based, RAS-independent, luminescence (AID 1935).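 Further: BJ fibroblasts immortalized with TERT plus LT and ST oncogenes.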 It counts as functional. The conditions noted are these: Homo sapiens.
Series [7] is described as follows: cytotoxicity toward DRD oncogenic fibroblasts, dose response, cell-based, non-viral oncogenic, luminescence (AID 1934). The conditions noted are these: Homo sapiens. Format: functional.
Series [8] concerns BJ. In words: cytotoxicity toward Ras-transformed BJeLR fibroblasts, dose response, cell-based, alamar blue fluorescence, cherrypicked samples (AID 2631).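 Further: confirmatory dose-response assay in RAS-dependent BJ fibroblasts engineered with TERT, LT and ST, with cytotoxicity read by fluorescence.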 As to conditions: Homo sapiens. Format: functional.
In the next series the test system is INS1. In words: beta cell apoptosis inhibitors, cytokine rescue, dose response, luminescence, retest (AID 449756).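 Further: cell death triggered by IL-1 beta plus TNF-alpha plus IFN-gamma mixture; protective hits raise ATP signal compared with cytokine alone wells.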 Format: functional, cell-based. As to conditions: Rattus norvegicus.
The target of a further series is Paired box protein Pax-8 (Homo sapiens, UniProt Q06710). In words: inhibitors of PAX8-driven TPO luciferase reporter, dose response, RMG-I cells, cherry-pick (AID 687027).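 Further: luciferase reporter driven by Pax8 target thyroperoxidase promoter measured by SteadyGlo luminescence.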 Format: functional, cell-based.
Sequence of Paired box protein Pax-8 (Q06710 whole entry): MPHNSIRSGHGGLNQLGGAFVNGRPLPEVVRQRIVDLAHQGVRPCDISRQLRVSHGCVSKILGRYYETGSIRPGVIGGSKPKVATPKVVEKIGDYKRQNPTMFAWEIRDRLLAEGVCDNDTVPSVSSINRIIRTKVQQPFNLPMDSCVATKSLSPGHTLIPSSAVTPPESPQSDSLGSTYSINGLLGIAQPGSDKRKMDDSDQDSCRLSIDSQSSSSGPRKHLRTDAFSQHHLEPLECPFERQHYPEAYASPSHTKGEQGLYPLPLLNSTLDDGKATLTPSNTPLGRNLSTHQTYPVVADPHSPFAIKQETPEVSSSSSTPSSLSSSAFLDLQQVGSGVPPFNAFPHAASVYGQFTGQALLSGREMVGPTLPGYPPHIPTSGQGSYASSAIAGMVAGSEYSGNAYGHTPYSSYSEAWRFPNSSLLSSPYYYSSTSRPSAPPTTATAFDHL
In series [9] the target is T2, Cytochrome P450 2C9 (Homo sapiens, UniProt P11712).
T2 sequence (P11712 whole entry): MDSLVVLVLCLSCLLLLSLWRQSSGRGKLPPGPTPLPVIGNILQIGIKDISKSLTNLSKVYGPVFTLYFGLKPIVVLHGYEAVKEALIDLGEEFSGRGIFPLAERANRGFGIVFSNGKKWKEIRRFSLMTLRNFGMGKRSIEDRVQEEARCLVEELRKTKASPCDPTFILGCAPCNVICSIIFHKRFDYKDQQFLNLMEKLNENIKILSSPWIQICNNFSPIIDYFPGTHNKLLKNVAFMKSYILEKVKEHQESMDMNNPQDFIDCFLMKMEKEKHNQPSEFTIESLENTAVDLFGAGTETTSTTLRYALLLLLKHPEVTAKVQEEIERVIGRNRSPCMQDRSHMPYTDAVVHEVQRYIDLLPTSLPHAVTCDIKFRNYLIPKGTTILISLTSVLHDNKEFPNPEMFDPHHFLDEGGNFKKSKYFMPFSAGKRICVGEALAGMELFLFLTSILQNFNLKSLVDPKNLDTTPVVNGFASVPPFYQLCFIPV
The target of series [10] is T3, Heat shock factor protein 1 (Mus musculus, UniProt P38532).
T3 sequence (P38532 whole entry): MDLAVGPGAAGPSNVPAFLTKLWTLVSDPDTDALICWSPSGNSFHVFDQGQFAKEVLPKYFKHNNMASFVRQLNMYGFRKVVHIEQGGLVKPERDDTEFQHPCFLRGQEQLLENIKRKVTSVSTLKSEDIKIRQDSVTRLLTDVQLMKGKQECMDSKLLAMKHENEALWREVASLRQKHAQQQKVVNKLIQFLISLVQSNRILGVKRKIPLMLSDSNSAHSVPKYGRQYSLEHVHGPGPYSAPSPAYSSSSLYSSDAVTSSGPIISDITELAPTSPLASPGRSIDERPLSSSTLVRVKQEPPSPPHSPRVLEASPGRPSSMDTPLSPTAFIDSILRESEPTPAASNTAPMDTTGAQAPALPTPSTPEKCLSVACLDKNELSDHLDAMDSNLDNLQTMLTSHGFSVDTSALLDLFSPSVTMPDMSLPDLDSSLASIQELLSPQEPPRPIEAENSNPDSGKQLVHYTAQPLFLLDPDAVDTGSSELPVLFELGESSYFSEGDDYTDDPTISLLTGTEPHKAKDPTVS
Kind of series: inhibition of MG132-induced HSE-luciferase signal, confirmation, cell-based, NIH3T3, luminescence, dose retest (AID 2382).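 Further: NIH3T3 fibroblasts with HSF1-driven luciferase reporter stressed by proteasome inhibitor MG132; luminescence from HSF1-driven luciferase expression after 8 hours of MG132 stress.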 It counts as functional.

The test system of another series is HEK293. In words: inhibitors of LMP1-driven NF-kB reporter, dose response, cell-based, HEK293, luciferase, cherry-pick (AID 588343). It counts as functional. As to conditions: Homo sapiens.
Series [11] is described as follows: LGR2 antagonists, dose response, cell-based, HEK293, CRE-luciferase reporter, cherry pick, set 2 (AID 743343).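 Further: transfected cells were stimulated with diluted bursicon conditioned medium after compound addition.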 It counts as functional.
The nature of series [12]: MC4R antagonists, dose response, counter-screen for LGR2 antagonist project, cell-based, plate reader, cherry pick (AID 743444).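 Further: transfected HEK 293 cells stimulated with alpha-MSH peptide; potency of inhibitors of the alpha-MSH evoked signal.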 Format: functional.
For another series, the target named is Cytochrome P450 2C19 (Homo sapiens, UniProt P33261). In words: Cytochrome panel assay with activity outcomes. Panel member name: p450-cyp2c19 Compounds with AC50 equal or less than 10 uM are considered active. Format: functional. As to conditions: read-out: AC50.
Sequence of Cytochrome P450 2C19 (P33261 whole entry): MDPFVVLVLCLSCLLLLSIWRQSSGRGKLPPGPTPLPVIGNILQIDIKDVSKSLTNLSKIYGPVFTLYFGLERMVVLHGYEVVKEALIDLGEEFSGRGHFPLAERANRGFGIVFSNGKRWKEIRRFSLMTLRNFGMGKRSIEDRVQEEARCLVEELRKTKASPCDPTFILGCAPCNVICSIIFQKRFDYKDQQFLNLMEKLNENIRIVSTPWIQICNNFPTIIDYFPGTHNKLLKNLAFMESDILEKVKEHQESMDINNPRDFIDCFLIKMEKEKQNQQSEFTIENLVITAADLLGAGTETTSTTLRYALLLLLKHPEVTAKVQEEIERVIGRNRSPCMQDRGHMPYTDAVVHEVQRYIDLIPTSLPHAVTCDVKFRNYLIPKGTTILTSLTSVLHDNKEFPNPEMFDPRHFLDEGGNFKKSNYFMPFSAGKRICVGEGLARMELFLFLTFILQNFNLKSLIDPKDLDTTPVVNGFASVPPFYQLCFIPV
For series [13], the target named is T2, Cytochrome P450 2C9. The source holds these as a separate data set.

Sequence of Luciferin 4-monooxygenase (P08659 whole entry): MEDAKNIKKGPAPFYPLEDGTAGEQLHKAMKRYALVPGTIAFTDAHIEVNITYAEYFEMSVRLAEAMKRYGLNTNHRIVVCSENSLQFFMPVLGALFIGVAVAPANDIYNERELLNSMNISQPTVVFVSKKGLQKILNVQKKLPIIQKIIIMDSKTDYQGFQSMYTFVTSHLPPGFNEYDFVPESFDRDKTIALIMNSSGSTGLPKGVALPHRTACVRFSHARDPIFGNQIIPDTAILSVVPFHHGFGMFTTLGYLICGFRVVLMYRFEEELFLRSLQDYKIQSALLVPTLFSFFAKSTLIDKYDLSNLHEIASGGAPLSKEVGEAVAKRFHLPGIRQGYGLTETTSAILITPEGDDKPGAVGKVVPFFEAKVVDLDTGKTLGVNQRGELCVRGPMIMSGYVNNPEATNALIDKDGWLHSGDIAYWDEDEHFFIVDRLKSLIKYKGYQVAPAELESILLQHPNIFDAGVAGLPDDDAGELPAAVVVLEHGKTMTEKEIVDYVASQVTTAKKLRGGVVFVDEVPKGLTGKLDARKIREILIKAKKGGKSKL

On to `COc1cccc(CN2CCN(C(=O)COc3ccc4ccccc4c3)CC2)c1`, for which the EC50 in [1] and in series [2] was > 112 µM (not active) each time. For the same compound, the IC50 at Beta-galactosidase is > 80 µM (inactive).

Consider `CSC1=C(C#N)C(c2ccccc2Cl)C2=C(O)c3ccccc3C2=N1` (stereo unspecified), for which the AC50 result at Cytochrome P450 3A4 is “inconclusive”.

Regarding `O=C(/C=C/c1ccccc1)N1CCN(Cc2nc(O)c3ccccc3n2)CC1`, the IC50 on Beta-galactosidase was > 80 µM (inactive). Also, the AC50 at Cytochrome P450 1A2 was 31.6 µM (inconclusive).

For the compound `CCCCc1c(C)nc2ccc(Br)cc2c1SCCC#N`, the IC50 at Prothrombin is > 50 µM (not active). Besides, in [3], the CC50 was 16.3 µM (active).

As for `FC(F)(F)c1nnc2c(Sc3ccccc3)nc3ccc(Cl)cc3n12`, the EC50 in the series with BJ [4] was 1.8 µM (inconclusive); in the series with BJ [5] it was 23.4 µM (active); with BJ [6], 3.65 µM (active); in series [7] it was 4.19 µM (active); in the series on BJ [8], 0.599 µM (active). Also, the AC50 is 7.41 µM (active) in the series on INS1, 1.52 µM (active) at Paired box protein Pax-8, 8.91 µM (inconclusive) on Cytochrome P450 2C9 [9] and “inconclusive” at Cytochrome P450 3A4.

With `Cc1cc(NC(=O)CCNS(=O)(=O)c2cc(Br)cnc2N)ccc1Br`, in series [3], the CC50 is > 40 µM (active).

Regarding `O=C(O)c1cccc(Nc2ccnc(Nc3cccc(C(=O)O)c3)n2)c1`, the EC50 in series [10] is 0.281 µM (active). The AC50 was 3.56 µM (active) in the series on HEK293, 2.9 µM (active) in series [11] and 2.56 µM (active) in series [12].

Regarding `CCC(=O)N1CCN(c2ccc(NC(=O)c3cccs3)cc2)CC1`, the AC50 was 0.501 µM (inconclusive) at Cytochrome P450 2C19, “inconclusive” on Cytochrome P450 3A4 and “inconclusive” on Cytochrome P450 2C9 [13].

On to `O=C(OC1CCN(c2ncc(C(F)(F)F)cc2Cl)CC1)c1ccccc1`, for which the AC50 entry on Cytochrome P450 3A4 is given as “inconclusive”.
